Results on twelve molecules are retold here after patent publication US20210002231A1 (Centre National de la Recherche Scientifique, priority 2018, published 2021).

As a reminder, the EC50 is the midpoint of the concentration-response curve. Broadly, the Emax is the maximal effect, on the per cent scale that the assay sets. By IC50 is commonly meant the point on the concentration scale where inhibition reaches its midpoint. Higher therefore signals weaker potency in that assay.

For assay [1], the target named is T1, human MOPr (Homo sapiens, UniProt P35372). The assay can be described thus: BRET1 β-arrestin-2 recruitment assay.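 For Emax: Emax relative to maximal DAMGO-induced BRET as 100%.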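 For MOPr (β-arrestin-2) Emax: Emax relative to maximal DAMGO-induced BRET as 100%.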 The settings on record: for Emax: read-out: MOPr (β-arrestin-2) Emax; for β-arrestin-2 recruitment: in words. More on the design: expressed in transfected cells; host or cells: HEK293 cells stably expressing eYFP-β-arrestin-2, transiently transfected with the Rluc8-MOP plasmid. The format is cell-based. Here is the method: Peak response amplitudes were normalized to basal and maximal (cells permeabilized with 20 μM digitonin) fluorescence levels. 1.8. β-Arrestin-2 recruitment assay The β-arrestin-2 recruitment assay was performed as described [34; 45] with minor modifications. Briefly, two days prior the experiment, HEK293 cells stably expressing eYFP-tagged β-arrestin-2 were transfected with the plasmid encoding Rluc8-MOP receptor. β-Arrestin-2 recruitment was measured at 37° C. in presence of 5 μM Coelenterazine H, 5 min after agonist addition.
T1 sequence (P35372 whole entry): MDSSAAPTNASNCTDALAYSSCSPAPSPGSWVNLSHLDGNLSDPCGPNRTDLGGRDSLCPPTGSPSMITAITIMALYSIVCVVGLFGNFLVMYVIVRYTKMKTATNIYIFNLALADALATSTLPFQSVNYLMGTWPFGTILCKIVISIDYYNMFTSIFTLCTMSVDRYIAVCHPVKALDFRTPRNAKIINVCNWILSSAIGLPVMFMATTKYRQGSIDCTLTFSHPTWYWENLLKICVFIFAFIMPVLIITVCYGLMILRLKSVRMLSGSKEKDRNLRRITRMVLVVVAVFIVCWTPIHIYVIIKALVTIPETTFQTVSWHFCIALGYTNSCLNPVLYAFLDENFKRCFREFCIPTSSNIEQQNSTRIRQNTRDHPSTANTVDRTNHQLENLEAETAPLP
A general note: In BRET a luciferase serves as donor, and the signal depends on an acceptor being close.

The target in the next assay is NPFF2R (Homo sapiens, UniProt Q9Y5X5). The assay can be described thus: Radioligand competition binding with [125I]-1-DMe-NPFF. The arrangement: expressed in transfected cells; HEK293-Glo20F cells (cAMP). (Loss of bound radioactivity is the signal in a displacement assay; it reports binding, not function.)
NPFF2R, sequence (Q9Y5X5 whole entry): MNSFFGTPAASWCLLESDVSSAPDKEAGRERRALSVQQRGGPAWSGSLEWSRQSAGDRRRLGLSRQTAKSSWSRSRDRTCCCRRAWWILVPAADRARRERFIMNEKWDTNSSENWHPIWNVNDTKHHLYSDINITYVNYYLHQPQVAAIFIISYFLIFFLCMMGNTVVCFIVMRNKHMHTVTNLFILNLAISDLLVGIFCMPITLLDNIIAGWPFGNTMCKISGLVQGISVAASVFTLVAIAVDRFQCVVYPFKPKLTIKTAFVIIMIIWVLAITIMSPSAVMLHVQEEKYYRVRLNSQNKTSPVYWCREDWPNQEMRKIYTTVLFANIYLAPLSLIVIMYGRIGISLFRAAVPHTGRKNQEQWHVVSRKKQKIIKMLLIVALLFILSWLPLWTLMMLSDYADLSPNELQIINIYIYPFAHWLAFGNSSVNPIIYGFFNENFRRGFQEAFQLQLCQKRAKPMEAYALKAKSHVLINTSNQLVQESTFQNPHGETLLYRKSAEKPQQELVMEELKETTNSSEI
The target of another assay is human NPFF1R (Homo sapiens, UniProt Q9GZQ6). The description is as above. The arrangement: expressed in transfected cells; HEK293-Glo20F cells (cAMP).
human NPFF1R, sequence (Q9GZQ6 whole entry): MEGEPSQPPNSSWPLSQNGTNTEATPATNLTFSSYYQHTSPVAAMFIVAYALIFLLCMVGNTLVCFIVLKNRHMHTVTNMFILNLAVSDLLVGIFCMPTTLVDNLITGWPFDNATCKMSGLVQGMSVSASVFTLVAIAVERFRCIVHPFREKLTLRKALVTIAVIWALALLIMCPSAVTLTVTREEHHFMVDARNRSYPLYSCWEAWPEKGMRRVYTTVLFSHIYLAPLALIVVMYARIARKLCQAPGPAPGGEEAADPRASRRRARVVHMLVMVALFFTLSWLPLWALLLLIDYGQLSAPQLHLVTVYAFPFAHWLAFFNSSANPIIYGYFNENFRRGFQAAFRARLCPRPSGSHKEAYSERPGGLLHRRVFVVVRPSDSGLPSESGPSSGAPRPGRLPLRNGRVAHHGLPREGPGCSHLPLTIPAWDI
The target of assay [2] is T1, human MOPr. In words: cell-based. The assay is classed as cell-based. To be noted: for EC50: Table 3B, read-out: MOPr (cAMP) EC50; for Emax: read-out: MOPr (cAMP) Emax; for MOPr-induced G protein activation: in words. More on the design: expressed in transfected cells; HEK293-Glo20F cells (cAMP). Here is the method: Stimulation by endogenous RF-amide peptides or test compounds for [^35S]-GTPγS binding to membranes from CHO cells expressing human NPFF1R or NPFF2R, were examined as reported. 1.6. Glo-Sensor cAMP Assay cAMP accumulation assay was essentially done as described with the following modifications: HEK293 cells stably expressing cAMP Glosensor-20F were used, with or without additional stable expression of each individual opioid receptor or NPFF1R. The cAMP responses were measured in presence of D-luciferin (1 mM).

[3] abbreviates: Table 3B, — = non-detectable recruitment, read-out: MOPr (β-arrestin-2) EC50.

Starred links: 1 amine or outer side, 2 acyl side, 3 side chain; linkers in the order of their positions; H or OH if unused. Non-standard residues stand in square brackets, D forms with d. Residues, ends and D or L forms follow the SMILES beside them. *: point of attachment. Nva(5-(4-Bn-piperidin-1-yl)) = N[C@@H](CCCN1CCC(Cc2ccccc2)CC1)C(=O)O; X5 = O=C1[C@@H](N[*:1])Cc2ccccc2CN1CCCC(=O)[*:2]; X1 = O=C1[C@@H](N[*:1])Cc2ccccc2CN1CCC(=O)[*:2]; Dmt = Cc1cc(O)cc(C)c1C[C@H](N)C(=O)O; d(hArg) = N=C(N)NCCCC[C@@H](N)C(=O)O; NMeβAla = CN(CCC(=O)[*:2])[*:1]; Nicotinoyl = O=C(c1cccnc1)*
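Throughout, for MOPr (cAMP) Emax: Emax relative to DAMGO as 100%.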

For the molecule `Cc1cc(O)cc(C)c1C[C@H](N)C(=O)N[C@H](CCCNC(=N)N)C(=O)N[C@H]1Cc2ccccc2CN(CCC(=O)N[C@@H](CCCN2CCC(Cc3ccccc3)CC2)C(=O)N[C@@H](Cc2ccc(O)cc2)C(N)=O)C1=O` [DP0004, H-Dmt-D-Arg-Aba-β-Ala-Bpa-Tyr-NH2] (H-[Dmt][dR][X1][Nva(5-(4-Bn-piperidin-1-yl))]Y-NH2), the EC50 at human MOPr [1] (setting [3]) amounted to 126 nM; on human MOPr [2] it was 4.2 ± 0.7 nM. Also, the maximum response (Emax) on human MOPr [1] stood at 64%; at human MOPr [2] it was 88 ± 4%. Besides, the IC50 at NPFF2R is under 50 nM; at human NPFF1R, 50 to 500 nM.

As for `Cc1cc(O)cc(C)c1C[C@H](N)C(=O)N[C@H](CCCNC(=N)N)C(=O)N[C@H]1Cc2ccccc2CN(CCC(=O)N[C@@H](CCCN2CCC(Cc3ccccc3)CC2)C(=O)N[C@@H](Cc2c[nH]c3ccccc23)C(N)=O)C1=O` [DP0005, H-Dmt-D-Arg-Aba-β-Ala-Bpa-Trp-NH2] (H-[Dmt][dR][X1][Nva(5-(4-Bn-piperidin-1-yl))]W-NH2), the 50% effective concentration (EC50) on human MOPr [1] (setting [3]) stood at 98 nM; on human MOPr [2], 7.9 ± 0.5 nM. Besides, the maximal effect (Emax) on human MOPr [1] worked out at 42%; at human MOPr [2], 81 ± 0.6%. The IC50 at NPFF2R is under 50 nM; at human NPFF1R, about 50 nM.

For the molecule `Cc1cc(O)cc(C)c1C[C@H](N)C(=O)N[C@H](CCCNC(=N)N)C(=O)N[C@H]1Cc2c(ccc3ccccc23)CN(CC(=O)N[C@@H](CCCN2CCC(Cc3ccccc3)CC2)C(=O)N[C@@H](Cc2ccccc2)C(N)=O)C1=O` [DP0012, H-Dmt-D-Arg-1AnaGly-Bpa-Phe-NH2], the half-maximal effective concentration (EC50) on human MOPr [1] (setting [3]) worked out at 650 nM; on human MOPr [2], 15.1 ± 0.4 nM. Besides, the Emax at human MOPr [1] is 22%; at human MOPr [2], 90 ± 2%. In addition, the IC50 on NPFF2R and on human NPFF1R was under 40 nM each time.

In the case of `Cc1cc(O)cc(C)c1C[C@H](N)C(=O)N[C@H](CCCNC(=N)N)C(=O)N[C@@H](Cc1ccccc1)C(=O)N(C)CCC(=O)N[C@@H](CCCN1CCC(Cc2ccccc2)CC1)C(=O)N[C@@H](Cc1ccccc1)C(N)=O` [DP0013, H-Dmt-D-Arg-Phe-N(Me)-β-Ala-Bpa-Phe-NH2] (H-[Dmt][dR]F[NMeβAla][Nva(5-(4-Bn-piperidin-1-yl))]F-NH2), the results for the half-maximal effective concentration (EC50) on human MOPr [1] (setting [3]) and on human MOPr [2] were 20.5 nM and 0.53 ± 0.004 nM, respectively. For the same molecule, the Emax turned out to be 101% on human MOPr [1] and 115 ± 4% at human MOPr [2]. In addition, the IC50 at NPFF2R was about 40 nM; on human NPFF1R, under 40 nM.

As for `Cc1cc(O)cc(C)c1C[C@H](N)C(=O)N(C)[C@H](C)C(=O)N[C@H]1Cc2c(ccc3ccccc23)CN(CC(=O)N[C@@H](CCCN2CCC(Cc3ccccc3)CC2)C(=O)N[C@@H](Cc2ccccc2)C(N)=O)C1=O` [DP0014, H-Dmt-N(Me)-D-Ala-1AnaGly-Bpa-Phe-NH2], the β-arrestin-2 recruitment result at human MOPr [1] was “non-detectable”. For the same molecule, the IC50 on NPFF2R was about 40 nM. Also, the 50% inhibitory concentration (IC50) on human NPFF1R is under 40 nM. For the same molecule, on human MOPr [2], the half-maximal effective concentration (EC50) worked out at 5.3 nM, the “MOPr-induced G protein activation” value was “significant” and the Emax is 76%.

As to `Cc1cc(O)cc(C)c1C[C@H](N)C(=O)N[C@H](CCCNC(=N)N)C(=O)N[C@H]1Cc2ccccc2CN(CCCC(=O)N[C@@H](CCCN2CCC(Cc3ccccc3)CC2)C(=O)N[C@@H](Cc2ccccc2)C(N)=O)C1=O` [DP0018, H-Dmt-D-Arg-AbaGABA-Bpa-Phe-NH2] (H-[Dmt][dR][X5][Nva(5-(4-Bn-piperidin-1-yl))]F-NH2), the half-maximal effective concentration (EC50) at human MOPr [1] (setting [3]) was found to be 95.8 nM; on human MOPr [2], 5.5 nM. For the same molecule, the results for the maximum response (Emax) on human MOPr [1] and on human MOPr [2] were 31% and 108%, respectively. Moreover, the figures for the IC50 at NPFF2R and on human NPFF1R were under 40 nM and 40 to 400 nM, respectively.

In the case of `Cc1cc(O)cc(C)c1C[C@H](N)C(=O)N[C@H](CCCNC(=N)N)C(=O)N[C@@H](Cc1ccccc1)C(=O)NCCC(=O)N[C@@H](CCCN1CCC(Cc2ccccc2)CC1)C(=O)N[C@@H](Cc1ccccc1)C(N)=O` [DP0019, H-Dmt-D-Arg-Phe-β-Ala-Bpa-Phe-NH2] (HELM PEPTIDE1{[Cc1cc(O)cc(C)c1C[C@H](N)C(=O)[*:2]].[dR].F.[bAla].[O=C([C@H](CCCN1CCC(Cc2ccccc2)CC1)N[*:1])[*:2]].F.[am]}$$$$V2.0), the EC50 at human MOPr [1] (setting [3]) amounted to 162 nM; at human MOPr [2], 4 ± 0.4 nM. In addition, the maximal effect (Emax) at human MOPr [1] amounted to 53%; at human MOPr [2], 101 ± 1%. Also, the IC50 at NPFF2R and on human NPFF1R was 40 to 400 nM in each case.

Consider `Cc1cc(O)cc(C)c1C[C@H](N)C(=O)N[C@H](CCCNC(=N)N)C(=O)N[C@H]1Cc2ccccc2CN(CCCC(=O)N[C@@H](CCCN2CCC(Cc3ccccc3)CC2)C(=O)N[C@H](C(N)=O)C(C)C)C1=O` [DP0020, H-Dmt-D-Arg-AbaGABA-Bpa-Val-NH2] (H-[Dmt][dR][X5][Nva(5-(4-Bn-piperidin-1-yl))]V-NH2), for which the results for the EC50 on human MOPr [1] (setting [3]) and on human MOPr [2] were 149 nM and 6.3 nM, respectively. In addition, the Emax on human MOPr [1] stood at 53%; at human MOPr [2], 101%. Also, the half-maximal inhibitory concentration (IC50) at NPFF2R and on human NPFF1R was 40 to 400 nM each time.

As for `Cc1cc(O)cc(C)c1C[C@H](N)C(=O)N[C@H](CCCNC(=N)N)C(=O)N[C@H]1Cc2c(ccc3ccccc23)CN(CC(=O)N[C@@H](CCCN2CCC(Cc3ccccc3)CC2)C(=O)N[C@H](C(N)=O)C(C)C)C1=O` [DP0021, H-Dmt-D-Arg-1AnaGly-Bpa-Val-NH2], the EC50 at human MOPr [1] (setting [3]) was found to be 109 ± 57 nM; on human MOPr [2] it was 2.8 ± 0.4 nM. Also, the maximum response (Emax) at human MOPr [1] came out at 22%; at human MOPr [2] it was 102 ± 3%. Also, the figures for the IC50 at NPFF2R and at human NPFF1R were under 40 nM and 40 to 400 nM, respectively.

With `Cc1cc(O)cc(C)c1C[C@H](N)C(=O)N[C@H](CCCNC(=N)N)C(=O)N[C@H]1Cc2ccccc2CN(CCCC(=O)N[C@@H](CCCN2CCC(Cc3ccccc3)CC2)C(=O)N[C@@H](Cc2c[nH]c3ccccc23)C(N)=O)C1=O` [DP0022, H-Dmt-D-Arg-AbaGABA-Bpa-Trp-NH2] (H-[Dmt][dR][X5][Nva(5-(4-Bn-piperidin-1-yl))]W-NH2), the EC50 at human MOPr [1] (setting [3]) was determined as 617 ± 205 nM; on human MOPr [2], 5 nM. Moreover, the Emax is 30 ± 0.7% on human MOPr [1] and 90% on human MOPr [2]. In addition, the figures for the half-inhibitory concentration (IC50) at NPFF2R and on human NPFF1R were under 40 nM and about 40 nM, respectively.

With `Cc1cc(O)cc(C)c1C[C@H](N)C(=O)N[C@H](CCCCNC(=N)N)C(=O)N[C@H]1Cc2ccccc2CN(CCC(=O)N[C@@H](CCCN2CCC(Cc3ccccc3)CC2)C(=O)N[C@@H](Cc2ccccc2)C(N)=O)C1=O` [DP0033, H-Dmt-D-hArg-Aba-β-Ala-Bpa-Phe-NH2] (H-[Dmt][d(hArg)][X1][Nva(5-(4-Bn-piperidin-1-yl))]F-NH2), the β-arrestin-2 recruitment entry at human MOPr [1] is on record as “non-detectable”. At human MOPr [2], the half-maximal effective concentration (EC50) was 24.9 nM, the “MOPr-induced G protein activation” value is “significant” and the Emax was 41%.

`Cc1cc(O)cc(C)c1C[C@H](N)C(=O)N[C@H](CCCCNC(=O)c1cccnc1)C(=O)N[C@H]1Cc2ccccc2CN(CCC(=O)N[C@@H](CCCN2CCC(Cc3ccccc3)CC2)C(=O)N[C@@H](Cc2ccccc2)C(N)=O)C1=O` [DP0034, H-Dmt-D-Lys(Nic)-Aba-β-Ala-Bpa-Phe-NH2] (H-[Dmt][dK](Nicotinoyl)[X1][Nva(5-(4-Bn-piperidin-1-yl))]F-NH2): on human MOPr [1], the concentration giving a half-maximal response (EC50) lay in the range of 5 to 50 nM and the maximal effect (Emax) was about 18%. At human MOPr [2], the EC50 worked out at 3.9 nM and the maximal response (Emax) was 92%.
